Measured values taken from ChEMBL document CHEMBL1138879 (J Med Chem, 2006).
pIC50: −log10 of the molar value.

Legend:
in vivo [1] = conditions: mouse, plasma, po, 1 mg/kg
in vivo [2] = conditions: mouse, iv, 1 mg/kg
in vivo [3] = conditions: dog, iv, 5 mg/kg
in vivo [4] = conditions: mouse, iv, 1 mg/kg; remark: listed apart in the source
in vivo [5] = conditions: mouse, iv, 1 mg/kg; remark: listed apart in the source
hERG (KCNH2) = hERG (KCNH2) (Homo sapiens, UniProt Q12809); assay: in vitro
in vivo [6] = conditions: dog, po, 10 mg/kg
PBMC = assay: cells; conditions: Homo sapiens
in vivo [7] = conditions: dog, iv, 5 mg/kg; remark: listed apart in the source
in vivo [8] = conditions: dog, plasma, po, 10 mg/kg
in vivo [9] = conditions: mouse, po, 1 mg/kg
in vivo [10] = conditions: mouse, po, 1 mg/kg; remark: listed apart in the source
in vivo [11] = conditions: mouse, iv, 1 mg/kg; remark: listed apart in the source
in vivo [12] = conditions: mouse, po, 1 mg/kg; remark: listed apart in the source
in vivo [13] = conditions: dog, po, 10 mg/kg; remark: listed apart in the source
in vivo [14] = conditions: dog, iv, 5 mg/kg; remark: listed apart in the source
in vivo [15] = conditions: dog, iv, 5 mg/kg; remark: listed apart in the source
in vivo [16] = conditions: dog, po, 10 mg/kg; remark: listed apart in the source

Chain of hERG (KCNH2) (Q12809 whole entry): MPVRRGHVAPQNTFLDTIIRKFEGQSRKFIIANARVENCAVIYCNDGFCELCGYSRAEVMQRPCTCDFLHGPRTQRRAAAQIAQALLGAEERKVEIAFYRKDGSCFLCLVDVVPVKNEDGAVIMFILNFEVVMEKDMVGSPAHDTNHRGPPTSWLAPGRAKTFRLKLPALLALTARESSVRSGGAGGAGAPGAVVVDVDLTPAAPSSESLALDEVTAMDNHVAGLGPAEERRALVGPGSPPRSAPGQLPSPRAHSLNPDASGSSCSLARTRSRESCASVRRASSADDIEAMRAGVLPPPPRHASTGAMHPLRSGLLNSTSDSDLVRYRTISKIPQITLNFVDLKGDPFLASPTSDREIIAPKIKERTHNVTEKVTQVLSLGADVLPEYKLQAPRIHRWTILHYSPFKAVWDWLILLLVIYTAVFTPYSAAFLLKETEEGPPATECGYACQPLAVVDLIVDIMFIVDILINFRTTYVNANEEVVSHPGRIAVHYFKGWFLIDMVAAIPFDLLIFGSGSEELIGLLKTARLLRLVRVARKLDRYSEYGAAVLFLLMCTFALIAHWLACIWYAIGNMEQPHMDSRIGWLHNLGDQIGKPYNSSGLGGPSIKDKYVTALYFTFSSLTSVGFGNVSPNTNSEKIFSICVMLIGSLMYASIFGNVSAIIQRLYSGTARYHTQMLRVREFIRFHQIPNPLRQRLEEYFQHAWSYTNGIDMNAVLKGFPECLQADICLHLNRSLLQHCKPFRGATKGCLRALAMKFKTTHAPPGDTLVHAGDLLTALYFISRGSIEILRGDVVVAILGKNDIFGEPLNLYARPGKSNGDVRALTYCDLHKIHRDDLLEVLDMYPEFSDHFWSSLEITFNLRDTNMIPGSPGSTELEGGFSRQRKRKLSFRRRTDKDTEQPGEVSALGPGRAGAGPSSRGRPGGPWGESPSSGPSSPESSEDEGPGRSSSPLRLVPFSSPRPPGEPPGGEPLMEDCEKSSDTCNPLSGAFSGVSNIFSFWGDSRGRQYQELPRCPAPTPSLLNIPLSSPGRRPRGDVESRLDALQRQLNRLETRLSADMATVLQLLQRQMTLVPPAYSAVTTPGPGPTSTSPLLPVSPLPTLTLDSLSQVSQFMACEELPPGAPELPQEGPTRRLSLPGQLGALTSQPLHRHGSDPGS

CN1C(=O)N(c2cc(Cl)cc(Cl)c2)C(=O)[C@]12CN(Cc1cc(C(=O)O)cs1)C[C@H]2c1ccc(C#N)cc1
AUC (in vivo [1]): 0.306 µM·h | half-life (in vivo [2]): 5.4 h | clearance (in vivo [3]): 3.6 mL/min/kg | clearance (in vivo [4]): 32 mL/min/kg | MRT (in vivo [5]): 4.4 h | inhibition at 30 µM (hERG (KCNH2)): 24% | bioavailability (in vivo [6]): 100% | pIC50 (PBMC): 6.55 | MRT (in vivo [7]): 3.3 h | AUC (in vivo [8]): 115 µM·h | bioavailability (in vivo [9]): 41% | Cmax (in vivo [10]): 0.083 µM | Vd (in vivo [11]): 8.5 L/kg | Tmax (in vivo [12]): 0.25 h | Tmax (in vivo [13]): 2 h | Vd (in vivo [14]): 0.7 L/kg | half-life (in vivo [15]): 3.5 h | Cmax (in vivo [16]): 18.9 µM
